Here are results for 18 molecules from BindingDB's records for doi:10.1021/jm8013458 (University of Copenhagen, 2009).

Experiment [1] deals with Excitatory amino acid transporter 1 (Homo sapiens, UniProt P43003). Put plainly: Displacement of [3H]D-Asp from human EAAT1 receptor expressed in HEK293 cells.
Experiment [2] has as its target Excitatory amino acid transporter 2 (Homo sapiens, UniProt P43004). Put plainly: Displacement of [3H]D-Asp from human EAAT2 receptor expressed in HEK293 cells.
The target of experiment [3] is T1, Excitatory amino acid transporter 3 (Homo sapiens, UniProt P43005).
T1 sequence (P43005 whole entry): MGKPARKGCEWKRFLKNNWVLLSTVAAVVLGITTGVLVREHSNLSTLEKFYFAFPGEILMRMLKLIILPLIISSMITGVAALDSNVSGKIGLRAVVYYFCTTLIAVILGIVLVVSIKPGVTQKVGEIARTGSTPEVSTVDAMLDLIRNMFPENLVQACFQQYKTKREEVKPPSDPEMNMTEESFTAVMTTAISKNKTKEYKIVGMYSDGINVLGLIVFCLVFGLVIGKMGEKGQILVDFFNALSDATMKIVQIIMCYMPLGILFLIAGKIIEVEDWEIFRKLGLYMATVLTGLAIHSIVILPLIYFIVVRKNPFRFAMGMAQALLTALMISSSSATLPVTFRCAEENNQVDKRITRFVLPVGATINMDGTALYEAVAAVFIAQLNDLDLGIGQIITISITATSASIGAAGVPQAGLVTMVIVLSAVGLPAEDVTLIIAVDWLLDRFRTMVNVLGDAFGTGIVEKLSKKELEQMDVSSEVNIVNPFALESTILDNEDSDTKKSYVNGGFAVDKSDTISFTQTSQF
The experiment is described as follows: Displacement of [3H]D-Asp from human EAAT3 receptor expressed in HEK293 cells.

Structures are written as SMILES.

Sequence of Excitatory amino acid transporter 1 (P43003 whole entry): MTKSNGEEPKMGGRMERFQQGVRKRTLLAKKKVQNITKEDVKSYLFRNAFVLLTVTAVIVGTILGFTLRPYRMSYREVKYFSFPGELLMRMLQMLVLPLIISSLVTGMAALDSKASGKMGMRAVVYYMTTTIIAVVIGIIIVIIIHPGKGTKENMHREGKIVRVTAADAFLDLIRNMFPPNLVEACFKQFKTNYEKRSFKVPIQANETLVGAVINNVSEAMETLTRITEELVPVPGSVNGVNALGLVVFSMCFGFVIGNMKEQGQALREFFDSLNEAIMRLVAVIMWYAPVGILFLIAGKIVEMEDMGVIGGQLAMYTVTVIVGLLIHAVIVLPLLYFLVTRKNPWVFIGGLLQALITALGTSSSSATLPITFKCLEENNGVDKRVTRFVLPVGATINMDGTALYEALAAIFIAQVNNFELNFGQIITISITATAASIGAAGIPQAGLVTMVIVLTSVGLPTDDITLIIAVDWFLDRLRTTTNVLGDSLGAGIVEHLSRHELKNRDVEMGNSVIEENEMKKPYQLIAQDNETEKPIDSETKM
Sequence of Excitatory amino acid transporter 2 (P43004 whole entry): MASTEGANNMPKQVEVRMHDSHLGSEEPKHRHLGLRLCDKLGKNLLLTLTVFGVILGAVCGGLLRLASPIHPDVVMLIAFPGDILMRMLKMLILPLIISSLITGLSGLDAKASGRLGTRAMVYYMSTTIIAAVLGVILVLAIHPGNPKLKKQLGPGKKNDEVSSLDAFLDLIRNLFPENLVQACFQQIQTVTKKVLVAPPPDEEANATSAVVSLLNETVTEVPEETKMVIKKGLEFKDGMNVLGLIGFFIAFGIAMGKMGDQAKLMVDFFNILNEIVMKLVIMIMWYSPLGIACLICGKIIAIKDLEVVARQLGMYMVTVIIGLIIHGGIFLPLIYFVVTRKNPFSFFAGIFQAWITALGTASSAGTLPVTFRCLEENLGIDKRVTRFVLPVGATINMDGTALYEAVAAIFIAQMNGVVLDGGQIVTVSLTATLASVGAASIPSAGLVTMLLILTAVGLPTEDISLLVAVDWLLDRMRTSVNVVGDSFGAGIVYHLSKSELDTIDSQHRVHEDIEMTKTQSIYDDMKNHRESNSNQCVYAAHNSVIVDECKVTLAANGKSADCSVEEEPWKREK

On to `CC1CC(=O)C2=C(C1)OC(=N)C(C#N)C2c1ccc2c(c1)OCO2` (centres undefined) [2-amino-4-(benzo[d][1,3]dioxol-5-yl)-7-methyl-5-oxo-5,6,7,8-tetrahydro-4H-chromene-3-carbonitrile], for which the IC50 in experiment [1], in experiment [2] and in experiment [3] was over 300 µM throughout.

Turning to `COc1ccc(C2C3=C(CC(c4ccccc4Cl)CC3=O)OC(=N)C2C#N)cc1` (centres undefined) [2-amino-7-(2-chlorophenyl)-4-(4-methoxyphenyl)-5-oxo-5,6,7,8-tetrahydro-4H-chromene-3-carbonitrile], the half-inhibitory concentration (IC50) in experiment [2] and in experiment [3] was over 300 µM each time.

On to `CSc1ccc(C2C3=C(CC(c4ccccc4)CC3=O)OC(=N)C2C#N)cc1` (centres undefined) [2-amino-4-(4-(methylthio)phenyl)-5-oxo-7-phenyl-5,6,7,8-tetrahydro-4H-chromene-3-carbonitrile], for which the concentration for half-maximal inhibition (IC50) in experiment [2] and in experiment [3] was over 100 µM each time.

Regarding `N#CC1C(=N)OC2=C(C(=O)CC(c3cccs3)C2)C1c1ccc([N+](=O)[O-])cc1` (centres undefined) [2-amino-4-(4-nitrophenyl)-5-oxo-7-(thiophen-2-yl)-5,6,7,8-tetrahydro-4H-chromene-3-carbonitrile], the 50% inhibitory concentration (IC50) in experiment [2] and in experiment [3] was over 300 µM each time.

Consider `COc1cccc(C2C3=C(CC(c4ccccc4)CC3=O)OC(=N)C2C#N)c1OC` (centres undefined) [2-amino-4-(2,3-dimethoxyphenyl)-5-oxo-7-phenyl-5,6,7,8-tetrahydro-4H-chromene-3-carbonitrile], for which the 50% inhibitory concentration (IC50) in experiment [1] was 50.1 µM.

For the molecule `N#CC1CC2=C(CC(c3ccccc3)CC2=O)OC1=N` (centres undefined) [2-Amino-5-oxo-7-phenyl-5,6,7,8-tetrahydro-4H-chromene-3-carbonitrile], the concentration for half-maximal inhibition (IC50) in experiment [1], in experiment [2] and in experiment [3] was over 300 µM throughout.

For the molecule `N#CC1C(=N)OC2=C(C(=O)CC(c3ccccc3)C2)C1c1ccc(-c2ccccc2)cc1` (centres undefined) [2-amino-4-(biphenyl-4-yl)-5-oxo-7-phenyl-5,6,7,8-tetrahydro-4H-chromene-3-carbonitrile], the concentration for half-maximal inhibition (IC50) in experiment [2] and in experiment [3] was over 100 µM each time.

For `N#CC1C(=N)OC2=C(C(=O)CCC2)C1c1ccccc1F` (centres undefined) [2-amino-4-(2-fluorophenyl)-5-oxo-5,6,7,8-tetrahydro-4H-chromene-3-carbonitrile], the IC50 in experiment [1], in experiment [2] and in experiment [3] was over 300 µM in each case.

Consider `N#CC1C(=N)OC2=C(C(=O)CC(c3ccco3)C2)C1c1ccccc1` (centres undefined) [2-amino-7-(furan-2-yl)-5-oxo-4-phenyl-5,6,7,8-tetrahydro-4H-chromene-3-carbonitrile], for which the IC50 in experiment [2] and in experiment [3] was over 300 µM throughout.

Take `CC1C2=C(CC(c3ccccc3)CC2=O)OC(=N)C1C#N` (centres undefined) [2-amino-4-methyl-5-oxo-7-phenyl-5,6,7,8-tetrahydro-4H-chromene-3-carbonitrile]: the values for the IC50 in experiment [2] and in experiment [3] were over 316 µM and over 300 µM, respectively.

Turning to `N#CC1C(=N)OC2=C(C(=O)CC(c3ccccc3)C2)C1c1ccc2ccccc2c1` (centres undefined) [2-amino-4-(naphthalen-2-yl)-5-oxo-7-phenyl-5,6,7,8-tetrahydro-4H-chromene-3-carbonitrile], the 50% inhibitory concentration (IC50) in experiment [1] is 3.6 µM; in experiment [2], over 100 µM; in experiment [3], over 100 µM.

Take `N#CC1C(=N)OC2=C(C(=O)CC(c3ccccc3)C2)C1c1ccc([N+](=O)[O-])cc1` (centres undefined) [2-amino-4-(4-nitrophenyl)-5-oxo-7-phenyl-5,6,7,8-tetrahydro-4H-chromene-3-carbonitrile]: the IC50 in experiment [1] is 3.6 µM; in experiment [2] it was over 100 µM; in experiment [3], over 100 µM.

As for `N#CC1C(=N)OC2=C(C(=O)CC(c3ccccc3)C2)C1Cc1ccccc1` (centres undefined) [2-amino-4-benzyl-5-oxo-7-phenyl-5,6,7,8-tetrahydro-4H-chromene-3-carbonitrile], the half-inhibitory concentration (IC50) in experiment [1] is 30 µM; in experiment [2] it was over 100 µM; in experiment [3], over 100 µM.

Turning to `COc1ccc(C2C3=C(CC(c4cccc5ccccc45)CC3=O)OC(=N)C2C#N)cc1` (centres undefined) [2-Amino-4-(4-methoxyphenyl)-7-(naphthalene-1-yl)-5-oxo-5,6,7,8-tetrahydro-4H-chromene-3-carbonitrile], the half-inhibitory concentration (IC50) was 0.66 µM in experiment [1], over 300 µM in experiment [2] and over 300 µM in experiment [3].

As to `COc1ccc(C2C3=C(CC(c4ccc(OC)c(OC)c4)CC3=O)OC(=N)C2C#N)cc1` (centres undefined) [2-Amino-4-(4-methoxyphenyl)-7-(3,4-dimethoxyphenyl)-5-oxo-5,6,7,8-tetrahydro-4H-chromene-3-carbonitrile], the IC50 in experiment [2] and in experiment [3] was over 300 µM throughout.

With `N#CC1C(=N)OC2=C(C(=O)CC(c3ccccc3)C2)C1c1ccc2c(c1)OCO2` (centres undefined), the half-inhibitory concentration (IC50) in experiment [2] and in experiment [3] was over 300 µM in each case.

Consider `N#CC1C(=N)OC2=C(C(=O)CC(c3ccccc3)C2)C1c1cccnc1` (centres undefined) [2-amino-5-oxo-7-phenyl-4-(pyridin-3-yl)-5,6,7,8-tetrahydro-4H-chromene-3-carbonitrile], for which the IC50 in experiment [1] was 30 µM; in experiment [2], over 300 µM; in experiment [3] it was over 300 µM.

For `COc1ccc(C2C3=C(CC(c4ccco4)CC3=O)OC(=N)C2C#N)cc1OC(=O)N1CCOCC1` (centres undefined) [5-(2-amino-3-cyano-7-(furan-2-yl)-5-oxo-5,6,7,8-tetrahydro-4H-chromen-4-yl)-2-methoxyphenyl morpholine-4-carboxylate], the IC50 in experiment [1] is 100 µM; in experiment [2], over 300 µM; in experiment [3] it was over 300 µM.
